Activity calls are given as the source filed them.
Assays:
[1] = target: Cytochrome P450 2C19 (Homo sapiens, UniProt P33261); test: Cytochrome panel assay with activity outcomes. Panel member name: p450-cyp2c19 Compounds with AC50 equal or less than 10 uM are considered active; type: functional
[2] = Trypanosoma cruzi growth suppression in host cells – NIH3T3 host cells, beta-gal luminescence, confirmation (AID 2044); type: functional, cell-based;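 also: intracellular parasites grown in NIH/3T3 mouse fibroblasts as host cells; luminescent beta-galactosidase reporter signal from transgenic T. cruzi replicating inside host cells; inhibitors lower the luminescence signal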
[3] = NIH3T3 cell viability loss – ATP luminescence, mouse fibroblasts, counter-screen, dose response (AID 2010); type: functional, cell-based;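 also: cells exposed to compound for about 90 hours before reading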
[4] = Luminescence Cell-Based Dose Response HTS to Identify Inhibitors of 5'UTR Stem-Loop Driven Prion Protein mRNA Translation in H4 Neuroglioblastoma Cells. [Related pubchem assays: 1827 (Project Summary), 1813 (Primary HTS)]; type: functional
[5] = luciferase reporter signal suppression in cells – H4 neuroglioma cells, luminescence, dose response (AID 1990); type: functional, cell-based
[6] = alpha-synuclein stem-loop luciferase translation blockers – H4 neuroglioma cells, luminescence, confirmation (AID 1988); type: functional, cell-based
[7] = target: T1, Corticotropin-releasing factor receptor 2/Corticotropin-releasing factor-binding protein (Homo sapiens, UniProt P24387+Q13324); test: activators of CRF receptor 2 with binding protein – uHTS hits, confirmation (AID 602473); type: functional; settings: read-out: EC50_Mean
T1 sequence (Q13324 whole entry): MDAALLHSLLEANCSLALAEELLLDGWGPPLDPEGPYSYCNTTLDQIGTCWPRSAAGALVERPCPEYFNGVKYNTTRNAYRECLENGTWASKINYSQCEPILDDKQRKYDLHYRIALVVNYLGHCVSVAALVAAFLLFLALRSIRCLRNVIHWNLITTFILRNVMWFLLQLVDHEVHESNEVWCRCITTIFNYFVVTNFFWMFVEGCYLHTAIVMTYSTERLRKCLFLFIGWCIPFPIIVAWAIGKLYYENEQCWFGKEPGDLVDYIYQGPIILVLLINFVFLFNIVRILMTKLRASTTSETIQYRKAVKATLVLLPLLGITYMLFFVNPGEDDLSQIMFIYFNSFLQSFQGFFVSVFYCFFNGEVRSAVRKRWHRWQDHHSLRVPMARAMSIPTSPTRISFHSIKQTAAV
T1 sequence (P24387 whole entry): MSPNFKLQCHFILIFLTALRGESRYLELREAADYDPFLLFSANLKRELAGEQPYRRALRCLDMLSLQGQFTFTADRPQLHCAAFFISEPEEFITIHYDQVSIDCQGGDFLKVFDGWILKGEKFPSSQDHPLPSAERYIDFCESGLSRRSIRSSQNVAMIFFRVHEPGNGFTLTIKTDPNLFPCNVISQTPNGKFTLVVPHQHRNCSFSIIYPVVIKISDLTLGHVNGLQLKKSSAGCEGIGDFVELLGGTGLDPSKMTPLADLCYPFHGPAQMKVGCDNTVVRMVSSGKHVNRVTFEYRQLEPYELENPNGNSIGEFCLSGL

Sequence of Cytochrome P450 2C19 (P33261 whole entry): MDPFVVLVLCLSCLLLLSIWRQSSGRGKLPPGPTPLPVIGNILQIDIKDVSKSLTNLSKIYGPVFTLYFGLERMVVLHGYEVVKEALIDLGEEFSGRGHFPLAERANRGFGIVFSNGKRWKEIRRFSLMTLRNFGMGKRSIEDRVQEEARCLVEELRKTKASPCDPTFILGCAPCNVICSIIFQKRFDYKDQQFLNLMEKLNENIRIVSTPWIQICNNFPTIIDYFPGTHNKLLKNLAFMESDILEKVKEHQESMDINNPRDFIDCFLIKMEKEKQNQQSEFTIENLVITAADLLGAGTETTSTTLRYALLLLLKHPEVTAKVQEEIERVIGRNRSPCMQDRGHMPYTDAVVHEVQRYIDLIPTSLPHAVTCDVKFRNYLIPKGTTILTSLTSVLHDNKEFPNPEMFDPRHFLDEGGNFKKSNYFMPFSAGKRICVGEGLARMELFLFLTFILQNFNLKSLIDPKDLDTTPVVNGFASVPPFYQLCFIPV

Structure (SMILES)	EC50 [2]	EC50 [3]	EC50 [4]	EC50 [5]	EC50 [6]	also measured
CC(C)NC(=O)N1CCC2(CC1)CCN(S(C)(=O)=O)CC2	–	–	–	–	–	AC50 ([1]; read-out: AC50): 39.8 µM (inconclusive)
C#CCn1/c(=N/C(=O)c2ccc(S(=O)(=O)N3CCCc4ccccc43)cc2)sc2cc(S(N)(=O)=O)ccc21	0.819 µM (active)	> 60 µM (not active)	–	–	–	–
O=S(=O)(c1ccccc1)N1CCC2(CC1)OCCO2	–	–	6.97 µM (active)	> 120 µM (not active)	> 120 µM (not active)	–
COc1ccc(-n2c(S)nnc2CNC(=O)c2cc(OC)c(OC)c(OC)c2)cc1	–	–	–	–	–	AC50 [1]: inconclusive
Cc1nn(Cc2ccccc2Cl)c(C)c1C(=O)NC1CCCc2ccccc21 (stereo not given)	–	–	103 µM (active)	17.1 µM (active)	58 µM (active)	–
COc1cccc(-c2nc(CS(=O)(=O)CC(=O)NCCc3ccc(C)cc3)c(C)o2)c1	–	–	> 120 µM (not active)	> 120 µM (not active)	> 120 µM (not active)	–
Cc1ccc(C)c(NC(=O)c2ccccc2O)c1	–	–	–	–	–	EC50 [7]: > 53 µM (inactive)
COc1cc(NC(=O)CCN2CCN(C/C=C/c3ccccc3)CC2)cc(OC)c1	0.918 µM (active)	> 60 µM (not active)	–	–	–	–
CCN(CC)CCN(C(=O)c1ccc(S(=O)(=O)N2CCCCC2)cc1)c1nc2cc3c(cc2s1)OCO3	0.213 µM (active)	> 60 µM (not active)	–	–	–	–
CCOc1ccc(NS(=O)(=O)c2ccc(C(=O)NCC3(N4CCCCC4)CCCCC3)cc2)cc1	–	–	–	–	–	EC50 [7]: 6.45 µM (active)
O=C(CCc1ccc(S(=O)(=O)NCc2ccccc2)cc1)N1CCN(Cc2ccc3c(c2)OCO3)CC1	0.897 µM (active)	> 30 µM (not active)	–	–	–	–
Cc1cccc(NC(=O)CSc2nnc(C)c(=O)n2N)c1C	–	–	> 120 µM (not active)	> 120 µM (not active)	> 120 µM (not active)	–
CC(C)NC(=O)c1ccccc1NC(=O)/C=C/c1cccc([N+](=O)[O-])c1	–	–	11.3 µM (active)	8.64 µM (active)	9.29 µM (active)	–
CCC/C=C(\CCC)C(NC(=O)C(C)(C)C)c1ccc(C(=O)OC)cc1 (stereo not given)	–	–	–	–	–	AC50 ([1]; read-out: AC50): 39.8 µM (inconclusive)
CCC(NCCC1=CCCCC1)=C1C(=O)NC(=O)NC1=O	–	–	> 120 µM (not active)	> 120 µM (not active)	> 120 µM (not active)	–
COc1ccc(N(CC(=O)NN=C2CCCC2)S(=O)(=O)c2ccccc2)cc1Cl	–	–	–	–	–	EC50 [7]: 4.37 µM (active)
NC(=NOC(=O)c1cc([N+](=O)[O-])ccc1Cl)c1cccnc1	–	–	> 120 µM (not active)	> 120 µM (not active)	> 120 µM (not active)	–
O=C(CCCCCn1c(=S)[nH]c2ccc(N3CCOCC3)cc2c1=O)NC1CCN(Cc2ccccc2)CC1	0.595 µM (active)	> 60 µM (not active)	–	–	–	–
CN1c2ccccc2Oc2c(c(=O)n(C)c(=O)n2C)C1c1cccc([N+](=O)[O-])c1 (stereo not given)	–	–	–	–	–	AC50 ([1]; read-out: AC50): 14.1 µM (inconclusive)
Cc1onc(-c2ccccc2Cl)c1C(=O)N(Cc1ccc(N(C)C)cc1)C(C)C	–	–	> 120 µM (not active)	22.5 µM (active)	> 120 µM (not active)	–
Cc1ccc(Sc2nc(-c3ccccc3)ccc2C#N)cc1	–	–	–	–	–	AC50 ([1]; read-out: AC50): 0.631 µM (inconclusive)
O=C(O)c1ccccc1N/N=C\c1ccnc2ccccc12	–	–	11.1 µM (active)	–	7.78 µM (active)	–

Structure (SMILES)	EC50 [2]	EC50 [3]	EC50 [4]	EC50 [5]	EC50 [6]	also measured
CCN(Cc1ccc(O)cc1)CC1CCCN(CCc2cccc(F)c2)C1 (stereo not given)	0.69 µM (active)	40.3 µM (active)	–	–	–	–
Cc1ccc2sc(N3CCN(C(=O)c4ccc([N+](=O)[O-])o4)CC3)nc2c1C	0.119 µM (active)	> 30 µM (not active)	–	–	–	–
COc1cc(CNC(=O)c2nc(Cn3nc(C)c(Br)c3C)no2)cc(OC)c1	–	–	> 120 µM (not active)	> 120 µM (not active)	42.7 µM (active)	–
Cc1c(C(=O)NCC2COc3ccccc3O2)oc2ccc(S(=O)(=O)N3CC(C)CC(C)C3)cc12 (stereo not given)	1.79 µM (active)	> 60 µM (not active)	–	–	–	–
Cc1ccc(-n2nnc(-c3nccs3)n2)cc1	–	–	0.985 µM (active)	4.02 µM (active)	1.41 µM (active)	–
NC(S)=Nc1cccc2[nH]ccc12	–	> 30 µM (not active)	–	–	–	–
Cc1cc(C)c(S(=O)(=O)N2CCN(c3ccc([N+](=O)[O-])c(-n4nc(C)cc4C)c3)CC2)c(C)c1	1.83 µM (active)	> 60 µM (not active)	–	–	–	–
Nc1nc(NCCCN2CCOCC2)nc(Nc2ccccc2)c1[N+](=O)[O-]	–	–	19 µM (active)	40.7 µM (active)	> 120 µM (not active)	–
COC(=O)c1sc(NC(=S)NC(=O)c2cccc(C)c2)nc1C	–	–	–	–	–	EC50 [7]: 9.05 µM (active)
Cc1ccc2c(c1)N1C(=O)c3ccccc3C1C1=C(O)CC(C)(C)CC1=N2 (stereo not given)	–	–	18.1 µM (active)	> 120 µM (not active)	> 120 µM (not active)	–
CCc1ccc(-c2nc(CSCC(=O)N3CCN(c4ccccn4)CC3)c(C)o2)cc1	–	–	15 µM (active)	8.61 µM (active)	12 µM (active)	–
O=C(Nc1ccc(N2CCCCC2)cc1)c1cc([N+](=O)[O-])cc([N+](=O)[O-])c1	0.411 µM (active)	> 60 µM (not active)	–	–	–	–
Cc1ccccc1N1C(=O)NC(=O)/C(=C\c2ccc3c(c2)CCCN3Cc2ccccc2)C1=O	–	–	–	–	–	EC50 [7]: 14.2 µM (active)
CC(=O)NCCC(=O)Nc1cc(S(=O)(=O)N2CCCCC2)ccc1N1CCN(C)CC1	0.231 µM (active)	> 30 µM (not active)	–	–	–	–
O=c1c(-c2ccc(O)cc2)coc2cc(O)cc(O)c12 [GENISTEIN]	–	–	–	–	–	AC50 ([1]; read-out: AC50): 10 µM (inconclusive)
CC(C)c1ccc(C(O)P(=O)(OC2CCCCC2)OC2CCCCC2)cc1 (stereo not given)	–	–	19.2 µM (active)	> 120 µM (not active)	> 120 µM (not active)	–
Cn1c(=N)n(CC(=O)c2ccc(Cl)c(Cl)c2)c2ccccc21	–	–	13.5 µM (active)	6.07 µM (inconclusive)	9.54 µM (active)	–
O=C(OCc1ccccc1)c1cn(-c2ccccc2)nc1-c1ccncc1	1.14 µM (active)	33.5 µM (active)	–	–	–	–
CN1CCN(CC2(O)CCN(S(=O)(=O)c3ccc(Cl)cc3)CC2)CC1	1.11 µM (active)	> 60 µM (not active)	–	–	–	–
CCc1c(C#N)c(SCCC(=O)Nc2ccc(F)cc2)nc2c1C(=O)CC(C)(C)C2	0.996 µM (active)	> 60 µM (not active)	–	–	–	–
CC1(C)Cc2c(ccc3ccccc23)C(c2cc3ccccc3oc2=O)=N1	–	–	21.5 µM (active)	11.1 µM (active)	> 120 µM (not active)	–
